Assay results from PMC6071225 (Viruses, 2018).
Read-outs that look alike come from different tables or passages of the source.

Columns and labels:
wt NA2009 = assay type: biochemical
[1] = tested on: catalytic domain of wild-type NA2009; assay type: binding; conditions: wt
[2] = 50 mM MES (or ACES), pH 6.15, 25 °C
[3] = 50 mM MES (or ACES), pH 6.15, 25 °C, listed as Oseltamivir

Structure (SMILES): CCC(CC)O[C@@H]1C=C(C(=O)O)C[C@H](N)[C@H]1NC(C)=O [oseltamivir carboxylate]
- Fold Ki (wt NA2009; wt NA2009, compared with that of wt NA2009): 1 fold
- Ki (wt NA2009; wt NA2009, mean ± s.d., two independent experiments, 37 °C): 24 ± 4 nM
- Fold Kd ([1]; compared with that of wt NA2009): 1 fold
- Kd [1, 2]: 140 ± 20 nM
- ΔG [1, 2]: -9.4 ± 0.1 kcal/mol
- ΔH [1, 2]: -10.8 ± 0.1 kcal/mol
- −T·ΔS [1, 2]: 1.5 ± 0.2 kcal/mol
- ΔG [1, 3]: -9.4 kcal/mol
- ΔH [1, 3]: -10.8 kcal/mol
- −T·ΔS [1, 3]: 1.5 kcal/mol
